# What was measured:
# human CRTH2 [1] = biological target: T1, human CRTH2 (Homo sapiens, UniProt Q9Y5Y4, V204A); test: Functional antagonist BRET assay on HEK293 cells stably expressing human CRTH2-Rluc and GFP2-β-arr2; assay type: cell-based; set-up: expressed in transfected cells; details: read-out: Antag. IC50
# T1 sequence (Q9Y5Y4 1-395 V204A): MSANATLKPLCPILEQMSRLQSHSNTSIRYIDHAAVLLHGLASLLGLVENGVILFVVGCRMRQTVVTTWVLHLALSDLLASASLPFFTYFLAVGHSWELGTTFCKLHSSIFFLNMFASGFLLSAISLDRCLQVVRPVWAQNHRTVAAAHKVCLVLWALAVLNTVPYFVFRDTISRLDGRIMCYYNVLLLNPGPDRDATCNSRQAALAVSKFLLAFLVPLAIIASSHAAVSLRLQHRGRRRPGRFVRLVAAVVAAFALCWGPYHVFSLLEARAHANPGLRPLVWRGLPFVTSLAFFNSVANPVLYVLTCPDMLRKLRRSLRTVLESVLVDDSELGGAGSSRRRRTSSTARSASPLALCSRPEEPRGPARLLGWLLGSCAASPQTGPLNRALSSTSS
# Description: (§1) Generation/origin of the cDNA Constructs. The coding sequence of the human CRTH2 receptor (genbank accession no NM_004778) was amplified by PCR from a human hippocampus cDNA library and inserted into the pcDNA3.1(+) expression vector (invitrogen) via 5′ HindIII and 3′ EcoRI. To generate a CRTH2-Renilla luciferase (CRTH2-Rluc) fusion protein, the CRTH2 coding sequence without a STOP codon and Rluc were amplified, fused in frame by PCR and subcloned into the pcDNA3.1(+)Zeo expression vector (invitrogen). Human β-arrestin2 (β-arr2) N-terminally tagged with GFP^2 (βarr2-GFP^2) and Renilla luciferase were purchased from BioSignal Packard Inc, (Montreal, Canada). The sequence identity of the construct was verified by restriction endonuclease digests and sequencing in both directions on an ABI Prism (Applied Biosystems, Foster City, Calif.).
# (§2) Cell Culture and Transfection. COS-7 cells were grown in Dulbecco's modified Eagle's medium (DMEM) 1885 supplemented with 10% fetal bovine serum, 100 units/ml penicillin, […] streptomycin, and kept at 37° C. in a 10% CO2 atmosphere. HEK293 cells were maintained in Minimum Essential medium (MEM) supplemented with 10% (v/v) heat inactivated fetal calf serum (HIFCS), 2 mM Glutamax™-I, 1% non essential amino acids (NEAA), 1% sodium pyruvate and 10 μg/ml gentamicin. For binding experiments, COS7 cells were transiently transfected with the CRTH2 receptor using a calcium phosphate-DNA coprecipitation method with the addition of chloroquine (as described by Holst et al., 2001↓). To perform the functional Bioluminescence Resonance Energy Transfer (BRET) assays, a HEK293 cell clone stably expressing βarr2-GFP^2 and CRTH2-Rluc was generated (CRTH2-HEK293 cells).
# BRET assay. Functional BRET assays were performed on HEK293 cells stably expressing human CRTH2-Rluc and GFP^2-β-arr2. Prior to their use in the BRET assay cells were detached and re-suspended in D-PBS with 1000 mg/L L-Glucose at a density of 2×10^6 cells/mL. DeepBlueC™ was diluted to 50 μM in D-PBS with 1000 mg/L L-Glucose (light sensitive). 100 μL of cell suspension was transferred to wells in a 96-well microplate (white OptiPlate) and placed in the Mithras LB 940 instrument (BERTHOLD TECHNOLOGIES, Bad Wildbad, Germany). 12 μL/well agonist was then injected by injector 1 and 10 μL/well DeepBlueC™ was injected simultaneously by injector 2. Five seconds after the injections the light output from the well was measured sequentially at 400 nm and 515 nm, and the BRET signal (mBRET ratio) was calculated by the ratio of the fluorescence emitted by GFP^2-β-arr2 (515 nm) over the light emitted by the receptor-Rluc (400 nm). Antagonists were added before placing the microplates into the Mithras LB 940 and allowed to incubate for 15 minutes prior to the addition of agonist and DeepBlueC™. Compounds were dissolved in DMSO and the final DMSO concentration was kept constant at 1% in the assay.
# (§3) Curve analysis was performed with the GraphPadPrism software 3.0 (Graphpad Prism Inc., San Diego, USA) and IC50 values were calculated as a measure of the antagonistic potencies.
# human CRTH2 [2] = biological target: T1, human CRTH2; test: Receptor binding assay: [3H]PGD2 competition binding on whole COS-7 cells transiently transfected with CRTH2 (also stable HEK293 cells); set-up: expressed in transfected cells; host or cells: COS-7 (transient, calcium phosphate)
# Description: as §1, §2
# Binding assay. 24 h after transfection COS-7 cells were seeded into 96 well plates at a density of 30.000 cells/well. Competition binding experiments on whole cells were then performed about 18-24 h later using 0.1 nM [^3H]PGD2 (NEN, 172 Ci/mmol) in a binding buffer consisting of HBSS (GIBCO) and 10 mM HEPES. Competing ligands were diluted in DMSO which was kept constant at 1% (v/v) of the final incubation volume. Total and nonspecific binding were determined in the absence and presence of 10 μM PGD2. Binding reactions were routinely conducted for 3 h at 4° C. and terminated by 2 washes (100 μl each) with ice cold binding buffer. Radioactivity was determined by liquid scintillation counting in a TOPCOUNTER (Packard) following over night incubation in Microscint 20. Stable HEK293 cells were seeded at a density of 30.000 cells/well 18-24 h prior to the binding assay which was performed essentially as described for COS7 cells above. Determinations were made in duplicates.
# as §3
# [3] = BRET, antagonist incubated 15 minutes prior to agonist
# [4] = competition with 0.1 nM [3H]PGD2, whole cells, 3 h at 4° C.
# [5] = functional antagonist assay, Table 3
# [6] = receptor binding assay, Table 3
IC50 (human CRTH2 [1]; [3]) [nM],IC50 (human CRTH2 [2]; [4]) [nM],IC50 (human CRTH2 [1]; [5]) [nM],IC50 (human CRTH2 [2]; [6]) [nM],SMILES
500 to 5000,< 500,,,"COc1ccc(-c2nc(-c3cc(Br)ccc3OCC(=O)O)co2)cc1 [D84, {4-Bromo-2-[2-(4-methoxyphenyl)oxazol-4-yl]phenoxy}acetic acid]"
< 500,< 500,,,"COc1ccc(Cc2nc(-c3cc(Br)ccc3OCC(=O)O)co2)cc1 [D92, {4-Bromo-2-[2-(4-methoxybenzyl)oxazol-4-yl]phenoxy}acetic acid]"
< 500,< 500,,,"O=C(O)COc1ccc(Br)cc1C(=O)c1cnn(-c2cccc(Br)c2)c1 [D24, 4-Bromo-2-[1-(3-bromophenyl)-1H-pyrazole-4-carbonyl]phenoxyacetic acid]"
< 500,< 500,,,"Cc1cc(Cl)ccc1-n1cc(C(=O)c2cc(Br)ccc2OC(C)C(=O)O)cn1 (stereo not drawn) [D62, 2-{4-Bromo-2-[1-(4-chloro-2-methylphenyl)-1H-pyrazole-4-carbonyl]phenoxy}propionic acid]"
< 500,< 500,,,"COc1ccccc1-n1cc(C(=O)c2cc(Br)ccc2OC(C)C(=O)O)cn1 (stereo not drawn) [D65, 2-{4-Bromo-2-[1-(2-methoxyphenyl)-1H-pyrazole-4-carbonyl]phenoxy}propionic acid]"
500 to 5000,< 500,,,"Cc1ccc(OCC(=O)O)c(C(=O)c2cnn(-c3ccccc3)c2)c1 [D11, [4-Methyl-2-(1-phenyl-1H-pyrazole-4-carbonyl)phenoxy]acetic acid]"
< 500,< 500,,,"Cc1ccc(-n2cc(C(=O)c3cc(Br)ccc3OC(C)C(=O)O)cn2)c(Br)c1 (stereo not drawn) [D50, 2-{4-Bromo-2-[1-(2-bromo-4-methylphenyl)-1H-pyrazole-4-carbonyl]phenoxy}propionic acid]"
< 500,< 500,,,"Cc1ccc(CN2C(=O)SC(Cc3cc(Br)ccc3OCC(=O)O)C2=O)cc1 (stereo not drawn) [D142, 4-Bromo-2-[3-(4-methylbenzyl)-2,4-dioxothiazolidin-5-ylmethyl]phenoxyacetic acid]"
,,< 500,< 500,"COc1ccccc1-c1noc(-c2cc(Br)ccc2OCC(=O)O)n1 [D107, {4-Bromo-2-[3-(2-methoxyphenyl)-[1,2,4]oxadiazol-5-yl]phenoxy}acetic acid]"
< 500,< 500,,,"O=C(O)COc1ccc(Br)cc1C(=O)c1cnn(-c2ccccc2Oc2ccccc2)c1 [D43, {4-Bromo-2-[1-(2-phenoxyphenyl)-1H-pyrazole-4-carbonyl]phenoxy}acetic acid]"
500 to 5000,< 500,,,"O=C(O)COc1ccc(-c2cc(F)cc(F)c2)cc1C(=O)c1cnn(-c2ccccc2)c1 [D8, [3′,5′-Difluoro-3-(1-phenyl-1H-pyrazole-4-carbonyl)biphenyl-4-yloxy]acetic acid]"
< 500,< 500,,,"CC(C)c1ccccc1-n1cc(C(=O)c2cc(Br)ccc2OCC(=O)O)cn1 [D73, {4-Bromo-2-[1-(2-isopropylphenyl)-1H-pyrazole-4-carbonyl]phenoxy}acetic acid]"
,,< 500,< 500,"O=C(O)COc1ccc(Br)cc1-c1nc(-c2ccc(C(F)(F)F)cc2)no1 [D106, {4-Bromo-2-[3-(4-trifluoromethyl-phenyl)-[1,2,4]oxadiazol-5-yl]phenoxy}-acetic acid]"
< 500,< 500,,,"CC(Oc1ccc(Br)cc1C(=O)c1cnn(-c2c(Cl)cc(Cl)cc2Cl)c1)C(=O)O (stereo not drawn) [D68, 2-{4-Bromo-2-[1-(2,4,6-trichlorophenyl)-1H-pyrazole-4-carbonyl]phenoxy}propionic acid]"
< 500,< 500,,,"O=C(O)COc1ccc(Br)cc1CC1SC(=O)N(Cc2ccncc2)C1=O (stereo not drawn) [D145, 4-Bromo-2-(2,4-dioxo-3-pyridin-4-ylmethylthiazolidin-5-ylmethyl)phenoxyacetic acid]"
> 5000,< 500,,,"O=C(O)COc1ccc(Br)cc1-c1nc(-c2ccccn2)no1 [D133, [4-Bromo-2-(3-pyridin-[1,2,4]oxadiazol-5-yl)phenoxy]acetic acid]"
< 500,< 500,,,"O=C(O)COc1ccc(Br)cc1C(=O)c1cnn(-c2ccc(Br)cc2)c1 [D16, 4-Bromo-2-[1-(4-bromophenyl)-1H-pyrazole-4-carbonyl]phenoxyacetic acid]"
< 500,< 500,,,"CC(Oc1ccc(Br)cc1C(=O)c1cnn(-c2ccccc2Oc2ccccc2)c1)C(=O)O (stereo not drawn) [D47, 2-{4-Bromo-2-[1-(2-phenoxyphenyl)-1H-pyrazole-4-carbonyl]phenoxy}propionic acid]"
< 500,< 500,,,"O=C(O)COc1ccc(Br)cc1CC1SC(=O)N(CC(=O)c2ccc(Cl)cc2)C1=O (stereo not drawn) [D143, 4-Bromo-2-{3-[2-(4-chlorophenyl)-2-oxoethyl]-2,4-dioxothiazolidin-5-ylmethyl}phenoxyacetic acid]"
< 500,> 5000,,,"O=C(O)COc1ccc(Br)cc1C(=O)c1cnn(-c2ccccc2Cl)c1 [D14, 4-Bromo-2-[1-(2-chloro-phenyl)-1H-pyrazole-4-carbonyl]phenoxyacetic acid]"
> 5000,> 5000,,,"O=C(O)COc1c(Cl)cc(Cl)cc1C(=O)c1cnn(-c2ccccc2)c1 [D13, [2,4-Dichloro-6-(1-phenyl-1H-pyrazole-4-carbonyl)phenoxy]acetic acid]"
> 5000,< 500,,,"O=C(c1cnn(-c2ccccc2)c1)c1cc(Br)ccc1OCc1nn[nH]n1 [D4, [5-Bromo-2-(2H-tetrazol-5-ylmethoxy)phenyl](1-phenyl-1H-pyrazol-4-yl)ketone]"
500 to 5000,< 500,,,O=C(O)COc1ccccc1C=NNC(=O)CSc1nnc(-c2ccc(Cl)cc2)n1-c1ccccc1 [D156]
< 500,< 500,,,"N#Cc1ccccc1-n1cc(C(=O)c2cc(Br)ccc2OCC(=O)O)cn1 [D40, {4-Bromo-2-[1-(2-cyano-phenyl)-1H-pyrazole-4-carbonyl]phenoxy}acetic acid]"
> 5000,< 500,,,O=C(O)COc1ccc(Br)cc1C=NNc1cccc2cccnc12 [D150]
,,< 500,< 500,"O=C(O)COc1ccc(Br)cc1-c1nc(-c2ccc(Cl)cc2)no1 [D102, {4-Bromo-2-[3-(4-chlorophenyl)-[1,2,4]oxadiazol-5-yl]phenoxy}acetic acid]"
< 500,< 500,,,"CCc1cc(Br)ccc1-n1cc(C(=O)c2cc(Br)ccc2OCC(=O)O)cn1 [D42, {4-Bromo-2-[1-(4-bromo-2-ethylphenyl)-1H-pyrazole-4-carbonyl]phenoxy}acetic acid]"

# — patent US20110269763A1, “CRTH2 receptor ligands for medicinal uses” (7TM Pharma A/S, priority 2004, published 2011)
